Assay results reported in US7488476B2, “B-cell epitope peptides of HSP 65, DNA encoding said peptides, antibodies directed against said peptides and the different uses thereof in the treatment of inflammatory and autoimmune diseases” (priority 1998, dated 2009).

What was measured:
Lewis rats [1] = test: Anti HSP antibodies in Lewis rats immunized with HSP peptides (ELISA); format: in vivo, rat; conditions: 100 μg peptide in PBS, 3 times IP
Procedure: ELISA: Flat-bottomed 96 well plates (Corning) were coated with mammalian HSP 60 or Mycobacterial HSP 65 (10 μg/ml) in carbonate buffer pH 9.6 overnight at 4° C.
HSP peptides were attached to plates pre-treated with glutaraldehyde according to Kasprzyk et al.. Shortly, plates were coated with 100 μl/well of 5% w/v of glutaraldehyde in PBS for 1 hour at room temp. Plates were washed thoroughly with PBS and peptides (1 μg/100 μl) were added to each well, incubated overnight at 4° C. Plates were shaken dry and blocked with BSA 1% in PBS.
Plates coated with either HSP or peptides were washed again and incubated with rat sera diluted 1:100 with PBS-Tween 0.01% for 90 min. at room temp. After re-washing the plates were incubated with Goat anti rat IgG or IgM conjugated to alkaline-phosphatase for 60 min. at room temp. […] Optical density was measured photometrically at 405 nm.
Modulation of AA by mycobacterial and mammalian HSP peltides: HSP 65 derived peptides were tested for their ability to modulate the appearance or severity of AA in Lewis rats. Rats were immunized with 100 μg of each peptide in PBS, three weeks (3W), 2W and 1W before induction of AA by MT. Control rats received PBS. Rats were bled for testing antibody presence before injection of MT and 30 days post MT injection.
To test whether active immunization with bacterial or mammalian HSP peptides that are recognized by protective immunoglobulins can induce protection against AA, Lewis rats were immunized with the mycobacterial peptides 6, 7, 21, 31, 36, 45, 84, that bound antibodies from resistant Lewis rats (“protective” peptides), with some non-reactive mycobacterial HSP 65 peptides: peptide 26 (residues 151-166), 28 (residues 163-178) or peptide 70 (residues 415-430), and with the mammalian peptide 5.
Rats were injected 3 times intraperitoneally (IP), with one week intervals between injections before induction of AA with MT.

rat immunoglobulins = test: ELISA: antibodies of rat sera to Mycobacterial HSP 65 and its peptides; format: binding
DBA/1 mice = test: Modulation of collagen arthritis in DBA/1 mice; format: in vivo, mouse; conditions: active vaccination
NOD mice = test: Peptide 6 immunization of NOD mice: onset of diabetes and antibodies by ELISA; format: in vivo, mouse
Procedure: Naive NOD mice were immunized 3 times intradermally (I.D.) with 100 μg peptide 6 (SEQ ID: No. 2) in CFA and IFA. Control mice received PBS. Mice were monitored for the onset of diabetes by glucose test and for anti-peptide 6 or anti-HSP 65 antibodies by ELISA. Mice immunized with the peptide developed anti-peptide 6 as well as anti-HSP 65 antibodies as detected by OD (1.52±0.07 and 1.43±0.13 respectively) in comparison to CFA immunized mice (0.05±0.01 and 0.01±0.01) and control mice (0.09±0.06 and 0.16±0.16).
To test whether active immunization with the bacterial HSP peptide 6 (SEQ ID: No. 2) can induce protective immunoglobulins against other autoimmune disorders, for instance autoimmune diabetes, NOD mice were immunized with the mycobacterial peptide 6 (“protective” peptide). Naive NOD mice were immunized 3 times I.D. with either 100 μg peptide 6 in CFA and IFA or PBS (control). Mice were monitored for the onset of diabetes by glucose test (appearance of hyperglycemia) and for anti-peptide 6 or […] antibodies by ELISA. Mice immunized with the peptide developed anti-peptide 6 as well as anti-HSP 65 antibodies as reflected by OD (1.52±0.07 and 1.43±0.13 respectively) in comparison to CFA immunized mice (0.05±0.Oland 0.01±0.01) and control mice (0.09±0.06 and 0.16±0.16).

Lewis rats [2] = test: Modulation of Adjuvant Arthritis by pre-immunization with HSP peptides; format: in vivo, rat; conditions: 3 IP injections at one week intervals before AA induction with MT, FIG. 4
[3] = NOD mice immunized 3 times I.D. with 100 μg peptide 6 in CFA and IFA, ELISA

Question: How did the “Anti HSP Antibodies in Immunized Lewis Rats, Antigen M5” value (Lewis rats [1]; antigen M5) turn out when GPKGRNVVLEKKWGAP [Peptide 6] was run?
Answer: The value was “− (<O. 15 = −)”.

Question: What about the “Anti HSP Antibodies in Immunized Lewis Rats, Antigen MT-HSP 65” value (Lewis rats [1]; antigen MT-HSP 65) of the same sequence?
Answer: The value was “++ (0.46-0.75 = ++)”.

Question: What about the “Anti HSP Antibodies in Immunized Lewis Rats, Antigen 6” value (Lewis rats [1]; antigen peptide 6) of the same sequence?
Answer: Its value is “++ (0.46-0.75 = ++)”.

Question: And the “Anti HSP Antibodies in Immunized Lewis Rats, Antigen 7” value (Lewis rats [1]; antigen peptide 7)?
Answer: The value was “− (<O. 15 = −)”.

Question: And the “Antibodies to Mycobacterial HSP 65 Peptides” value (rat immunoglobulins; strain BN-6w)?
Answer: Its value is “+ (0.16-0.45 = +)”.

Question: What about the “Antibodies to Mycobacterial HSP 65 Peptides” value (rat immunoglobulins; strain Lew-4m) of the same sequence?
Answer: Its value is “+ (0.16-0.45 = +)”.

Question: What about the “Antibodies to Mycobacterial HSP 65 Peptides” value (rat immunoglobulins; strain Lew-6w) of the same sequence?
Answer: Its value is “− (<O. 15 = −)”.

Question: And the “Antibodies to Mycobacterial HSP 65 Peptides” value (rat immunoglobulins; strain Lew-9m)?
Answer: Its value is “+ (0.16-0.45 = +)”.

Question: And the “Antibodies to Mycobacterial HSP 65 Peptides” value (rat immunoglobulins; strain Lew-Post AA)?
Answer: Its value is “+++ (>0.75 = +++)”.

Question: And the murine collagen arthritis (DBA/1 mice)?
Answer: Its murine collagen arthritis is “suppressed significantly”.

Question: And the “anti-HSP 65 antibodies” value (NOD mice; [3])?
Answer: Its value is 1.43±0.13 OD.

Question: What about the “anti-peptide 6 antibodies” value (NOD mice; [3]) of the same sequence?
Answer: The value was 1.52±0.07 OD.

Question: What about the “appearance of the diabetic symptoms” value (NOD mice; NOD mice, glucose test, FIG. 7) of the same sequence?
Answer: The value was “clearly delayed”.

Question: What about the “number of sick mice” value (NOD mice; NOD mice, peptide-6 vaccinated group) of the same sequence?
Answer: The value was “significantly lowered”.

Question: And the diabetes disease severity (NOD mice; NOD mice, FIG. 7)?
Answer: Its diabetes disease severity is “significantly reduced”.

Question: What about the “AA disease severity after pre-immunization” value (Lewis rats [2]) of the same sequence?
Answer: Its value is “significant suppression of disease severity”.
